Assay results published in ChEMBL document CHEMBL1157650, “Synthesis and bradykinin inhibitory activity of novel non-peptide compounds, and evaluation of in vivo analgesic activity” (2010).
The source made the active and inactive calls. The rule behind the calls is not given here.

How the values were obtained:
[1] = test system: Ileum; assay: Inhibition of bradykinin-induced Hartley guinea pig ileum contraction at 1 uM relative to control; format: functional; conditions: Cavia porcellus
[2] = test system: Rattus norvegicus; assay: Analgesic activity in S1/S2 spinal nerve ligated rat model of neuropathic pain assessed as suppression of mechanical stimuli-induced allodynia at 60 mg/kg, ip; format: functional, organism-based; set-up: dose 60 mg/kg
[3] = test system: Rattus norvegicus; assay: Antinociceptive activity against formalin-induced pain in rat assessed as time spent in licking, shaking or biting paw in early phase at 60 ug, sc (Rvb=47.05 +/- 8.53 sec); format: functional
[4] = test system: Rattus norvegicus; assay: Antinociceptive activity against formalin-induced pain in rat assessed as time spent in licking, shaking or biting paw in late phase at 60 ug, sc (Rvb=334.21 +/- 51.10 sec); format: functional
[5] = test system: Rattus norvegicus; assay: Analgesic activity in S1/S2 spinal nerve ligated rat model of neuropathic pain assessed as suppression of cold water-induced allodynia at 60 mg/kg, ip; format: functional, organism-based; set-up: dose 60 mg/kg
[6] = test system: Rattus norvegicus; assay: Analgesic activity in S1/S2 spinal nerve ligated rat model of neuropathic pain assessed as suppression of warm water-induced allodynia at 60 mg/kg, ip; format: functional, organism-based; set-up: dose 60 mg/kg

Structure (SMILES): COc1cc(CNC(=O)CC(C)CC(=O)N2CCN(C(c3ccccc3)c3ccc(Cl)cc3)CC2)cc(OC)c1OC (centres undefined)
- inhibition at 1 µM [1]: 53.1%

Structure (SMILES): COc1ccc(CNC(=O)/C=C\C(=O)N2CCN(C(c3ccccc3)c3ccc(Cl)cc3)CC2)cc1 (centres undefined)
- inhibition at 1 µM [1]: 74.1%

Structure (SMILES): CC(CC(=O)NC1CCCCC1)CC(=O)N1CCCN(C(c2ccccc2)c2ccc(Cl)cc2)CC1 (centres undefined)
- inhibition at 1 µM [1]: 80.3%

Structure (SMILES): CC(CC(=O)N(C)C)CC(=O)N1CCN(C(c2ccccc2)c2ccc(Cl)cc2)CC1 (centres undefined)
- inhibition at 1 µM [1]: 36%

Structure (SMILES): COc1ccc(CNC(=O)CCC(=O)N2CCCN(C(c3ccccc3)c3ccc(Cl)cc3)CC2)cc1 (centres undefined)
- inhibition at 1 µM [1]: 80.9%

Structure (SMILES): Cc1ccc(CNC(=O)CC(C)CC(=O)N2CCCN(C(c3ccccc3)c3ccc(Cl)cc3)CC2)cc1 (centres undefined)
- inhibition at 1 µM [1]: 81.3%

Structure (SMILES): COc1cc(CNC(=O)CC(C)(C)CC(=O)N2CCN(C(c3ccccc3)c3ccc(Cl)cc3)CC2)cc(OC)c1OC (centres undefined)
- inhibition at 1 µM [1]: 49.1%

Structure (SMILES): Cc1ccc(CNC(=O)CCC(=O)N2CCN(C(c3ccccc3)c3ccc(Cl)cc3)CC2)cc1 (centres undefined)
- inhibition at 1 µM [1]: 67.9%

Structure (SMILES): Cc1ccc(CNC(=O)CC(C)(C)CC(=O)N2CCN(C(c3ccccc3)c3ccc(Cl)cc3)CC2)cc1 (centres undefined)
- inhibition at 1 µM [1]: 32.9%

Structure (SMILES): COc1ccc(CNC(=O)CC(C)CC(=O)N2CCN(C(c3ccccc3)c3ccc(Cl)cc3)CC2)cc1 (centres undefined)
- inhibition at 1 µM [1]: 64.9%

Structure (SMILES): COc1ccc(CNC(=O)CCC(=O)N2CCN(C(c3ccccc3)c3ccc(Cl)cc3)CC2)cc1 (centres undefined)
- inhibition at 1 µM [1]: 57.2%

Structure (SMILES): COc1cc(CNC(=O)CC(C)CC(=O)N2CCCN(C(c3ccccc3)c3ccc(Cl)cc3)CC2)cc(OC)c1OC (centres undefined)
- inhibition at 1 µM [1]: 69.7%

Structure (SMILES): CC(CCc1ccccc1)NC(=O)/C=C\C(=O)N1CCCN(C(c2ccccc2)c2ccc(Cl)cc2)CC1 (centres undefined)
- inhibition at 1 µM [1]: 79.7%

Structure (SMILES): COc1ccc(CNC(=O)CC(C)(C)CC(=O)N2CCN(C(c3ccccc3)c3ccc(Cl)cc3)CC2)cc1 (centres undefined)
- inhibition at 1 µM [1]: 31.6%

Structure (SMILES): COc1ccc(CNC(=O)/C=C\C(=O)N2CCN(C(c3ccc(F)cc3)c3ccc(F)cc3)CC2)cc1
- inhibition at 1 µM [1]: 79.6%

Structure (SMILES): O=C(/C=C\C(=O)N1CCN(C(c2ccc(F)cc2)c2ccc(F)cc2)CC1)NC1CCCCC1
- inhibition at 1 µM [1]: 65.4%

Structure (SMILES): COc1ccc(CNC(=O)/C=C\C(=O)N2CCCN(C(c3ccccc3)c3ccc(Cl)cc3)CC2)cc1 (centres undefined)
- inhibition at 1 µM [1]: 75%

Structure (SMILES): Cc1ccc(CNC(=O)/C=C\C(=O)N2CCN(C(c3ccc(F)cc3)c3ccc(F)cc3)CC2)cc1
- inhibition at 1 µM [1]: 84.5%

Structure (SMILES): CC(CCc1ccccc1)NC(=O)/C=C\C(=O)N1CCN(C(c2ccc(F)cc2)c2ccc(F)cc2)CC1 (centres undefined)
- inhibition at 1 µM [1]: 86.6%
- Activity [2]: inactive
- Activity [3]: 14.82 s
- Activity [4]: 129.31 s
- Activity [5]: Active
- Activity [6]: Active

Structure (SMILES): CC(C)(CC(=O)NC1CCCCC1)CC(=O)N1CCN(C(c2ccccc2)c2ccc(Cl)cc2)CC1 (centres undefined)
- inhibition at 1 µM [1]: 28%

Structure (SMILES): COc1cc(CNC(=O)CCC(=O)N2CCCN(C(c3ccccc3)c3ccc(Cl)cc3)CC2)cc(OC)c1OC (centres undefined)
- inhibition at 1 µM [1]: 72.6%

Structure (SMILES): Cc1ccc(CNC(=O)CCC(=O)N2CCCN(C(c3ccccc3)c3ccc(Cl)cc3)CC2)cc1 (centres undefined)
- inhibition at 1 µM [1]: 67.7%

Structure (SMILES): CC(CCc1ccccc1)NC(=O)/C=C\C(=O)N1CCN(C(c2ccccc2)c2ccccc2)CC1 (centres undefined)
- inhibition at 1 µM [1]: 77.5%

Structure (SMILES): N=C(N)NCCC[C@@H](N)C(=O)N[C@@H](CCCNC(=N)N)C(=O)N1CCC[C@H]1C(=O)N1C[C@H](O)C[C@H]1C(=O)NCC(=O)N[C@@H](Cc1cccs1)C(=O)N[C@@H](CO)C(=O)N1Cc2ccccc2C[C@@H]1C(=O)N1[C@H](C(=O)N[C@@H](CCCNC(=N)N)C(=O)O)C[C@@H]2CCCC[C@@H]21 [ICATIBANT]
- inhibition at 1 µM [1]: 100%

Structure (SMILES): Cc1ccc(CNC(=O)CC(C)CC(=O)N2CCN(C(c3ccccc3)c3ccc(Cl)cc3)CC2)cc1 (centres undefined)
- inhibition at 1 µM [1]: 64.8%

Structure (SMILES): COc1ccc(CNC(=O)CC(C)CC(=O)N2CCCN(C(c3ccccc3)c3ccc(Cl)cc3)CC2)cc1 (centres undefined)
- inhibition at 1 µM [1]: 78.3%

Structure (SMILES): CC(CC(=O)NC1CCCCC1)CC(=O)N1CCN(C(c2ccccc2)c2ccc(Cl)cc2)CC1 (centres undefined)
- inhibition at 1 µM [1]: 60.8%

Structure (SMILES): O=C(/C=C\C(=O)N1CCCN(C(c2ccccc2)c2ccc(Cl)cc2)CC1)NC1CCCCC1 (centres undefined)
- inhibition at 1 µM [1]: 66%

Structure (SMILES): O=C(CCC(=O)N1CCN(C(c2ccccc2)c2ccc(Cl)cc2)CC1)NC1CCCCC1 (centres undefined)
- inhibition at 1 µM [1]: 79%

Structure (SMILES): O=C(CCC(=O)N1CCCN(C(c2ccccc2)c2ccc(Cl)cc2)CC1)NC1CCCCC1 (centres undefined)
- inhibition at 1 µM [1]: 71.7%

Structure (SMILES): Cc1ccc(CNC(=O)/C=C\C(=O)N2CCCN(C(c3ccccc3)c3ccc(Cl)cc3)CC2)cc1 (centres undefined)
- inhibition at 1 µM [1]: 79.4%

Structure (SMILES): COc1cc(CNC(=O)CCC(=O)N2CCN(C(c3ccccc3)c3ccc(Cl)cc3)CC2)cc(OC)c1OC (centres undefined)
- inhibition at 1 µM [1]: 65.2%

Structure (SMILES): Cc1ccc(CNC(=O)/C=C\C(=O)N2CCN(C(c3ccccc3)c3ccc(Cl)cc3)CC2)cc1 (centres undefined)
- inhibition at 1 µM [1]: 78.5%

Structure (SMILES): O=C(/C=C\C(=O)N1CCN(C(c2ccccc2)c2ccc(Cl)cc2)CC1)NC1CCCCC1 (centres undefined)
- inhibition at 1 µM [1]: 57.4%
